Reference: PubChem BioAssay (NCI)
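Each compound was tested at five concentrations against cells in 96-well plates for 48 hours. TGI is the concentration that stops growth completely.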

Key:
Assay in all cases: NCI tumour cell line growth inhibition, 48 h
CCRF-CEM leukemia = system: CCRF-CEM leukemia
KM12 colon = system: KM12 colon
HCT-116 colon = system: HCT-116 colon
OVCAR-3 ovarian = system: OVCAR-3 ovarian
RXF 393 renal = system: RXF 393 renal
OVCAR-4 ovarian = system: OVCAR-4 ovarian
COLO 205 colon = system: COLO 205 colon
RXF-631 renal = system: RXF-631 renal
LXFL 529 NSCLC = system: LXFL 529 NSCLC
HCT-15 colon = system: HCT-15 colon
OVCAR-8 ovarian = system: OVCAR-8 ovarian
HT29 colon = system: HT29 colon
M19-MEL melanoma = system: M19-MEL melanoma
HOP-18 NSCLC = system: HOP-18 NSCLC
HOP-62 NSCLC = system: HOP-62 NSCLC
SW-620 colon = system: SW-620 colon
M14 melanoma = system: M14 melanoma
NCI-H226 lung = system: NCI-H226 lung
SF-268 CNS = system: SF-268 CNS
UO-31 renal = system: UO-31 renal
NCI-H522 lung = system: NCI-H522 lung
SN12C renal = system: SN12C renal
DMS 273 small cell lung = system: DMS 273 small cell lung
SF-295 CNS = system: SF-295 CNS
UACC-62 melanoma = system: UACC-62 melanoma
SF-539 CNS = system: SF-539 CNS
K-562 leukemia = system: K-562 leukemia
SNB-19 CNS = system: SNB-19 CNS
EKVX NSCLC = system: EKVX NSCLC
A549 NSCLC = system: A549 NSCLC
UACC-257 melanoma = system: UACC-257 melanoma
HL-60(TB) leukemia = system: HL-60(TB) leukemia
RPMI-8226 leukemia = system: RPMI-8226 leukemia
HOP-92 NSCLC = system: HOP-92 NSCLC
U251 CNS = system: U251 CNS
OVCAR-5 ovarian = system: OVCAR-5 ovarian
786-0 renal = system: 786-0 renal
SNB-78 CNS = system: SNB-78 CNS
SK-MEL-2 melanoma = system: SK-MEL-2 melanoma
SNB-75 CNS = system: SNB-75 CNS
NCI-H23 lung = system: NCI-H23 lung
CAKI-1 renal = system: CAKI-1 renal
HCC-2998 colon = system: HCC-2998 colon
KM20L2 colon = system: KM20L2 colon
SK-OV-3 ovarian = system: SK-OV-3 ovarian
IGROV1 ovarian = system: IGROV1 ovarian
MALME-3M melanoma = system: MALME-3M melanoma
MOLT-4 leukemia = system: MOLT-4 leukemia
XF 498 CNS = system: XF 498 CNS
A498 renal = system: A498 renal
DMS 114 small cell lung = system: DMS 114 small cell lung
ACHN renal = system: ACHN renal
SK-MEL-5 melanoma = system: SK-MEL-5 melanoma
DLD-1 colon = system: DLD-1 colon
SK-MEL-28 melanoma = system: SK-MEL-28 melanoma
TK-10 renal = system: TK-10 renal
LOX IMVI melanoma = system: LOX IMVI melanoma

`CC(C)N(C(=O)C1(C)CC1)C(C)C` was tested, and the TGI (CCRF-CEM leukemia) was > 100 µM, the TGI (KM12 colon) was > 100 µM and the TGI (HCT-116 colon) was > 100 µM. The TGI (OVCAR-3 ovarian) was > 100 µM, the TGI (RXF 393 renal) was > 100 µM and the TGI (OVCAR-4 ovarian) was > 100 µM. The TGI (COLO 205 colon) was > 100 µM, the TGI (RXF-631 renal) was > 100 µM and the TGI (LXFL 529 NSCLC) was > 100 µM. For the same compound, the TGI (HCT-15 colon) was > 100 µM, the TGI (OVCAR-8 ovarian) was > 100 µM and the TGI (HT29 colon) was > 100 µM. For the same compound, the TGI (M19-MEL melanoma) was > 100 µM, the TGI (HOP-18 NSCLC) was > 100 µM and the TGI (HOP-62 NSCLC) was > 100 µM. For the same compound, the TGI (SW-620 colon) was > 100 µM, the TGI (M14 melanoma) was > 100 µM and the TGI (NCI-H226 lung) was > 100 µM. For the same compound, the TGI (SF-268 CNS) was > 100 µM, the TGI (UO-31 renal) was > 100 µM and the TGI (NCI-H522 lung) was > 100 µM. The TGI (SN12C renal) was > 100 µM, the TGI (DMS 273 small cell lung) was > 100 µM and the TGI (SF-295 CNS) was > 100 µM. For the same compound, the TGI (UACC-62 melanoma) was > 100 µM, the TGI (SF-539 CNS) was > 100 µM and the TGI (K-562 leukemia) was > 100 µM. For the same compound, the TGI (SNB-19 CNS) was > 100 µM, the TGI (EKVX NSCLC) was > 100 µM and the TGI (A549 NSCLC) was > 100 µM. For the same compound, the TGI (UACC-257 melanoma) was > 100 µM, the TGI (HL-60(TB) leukemia) was > 100 µM and the TGI (RPMI-8226 leukemia) was > 100 µM. The TGI (HOP-92 NSCLC) was > 100 µM, the TGI (U251 CNS) was > 100 µM and the TGI (OVCAR-5 ovarian) was > 100 µM. For the same compound, the TGI (786-0 renal) was > 100 µM, the TGI (SNB-78 CNS) was > 100 µM and the TGI (SK-MEL-2 melanoma) was > 100 µM. For the same compound, the TGI (SNB-75 CNS) was > 100 µM, the TGI (NCI-H23 lung) was > 100 µM and the TGI (CAKI-1 renal) was > 100 µM. For the same compound, the TGI (HCC-2998 colon) was > 100 µM, the TGI (KM20L2 colon) was > 100 µM and the TGI (SK-OV-3 ovarian) was > 100 µM. The TGI (IGROV1 ovarian) was > 100 µM, the TGI (MALME-3M melanoma) was > 100 µM and the TGI (MOLT-4 leukemia) was > 100 µM. For the same compound, the TGI (XF 498 CNS) was > 100 µM, the TGI (A498 renal) was > 100 µM and the TGI (DMS 114 small cell lung) was > 100 µM. For the same compound, the TGI (ACHN renal) was > 100 µM, the TGI (SK-MEL-5 melanoma) was > 100 µM and the TGI (DLD-1 colon) was > 100 µM. The TGI (SK-MEL-28 melanoma) was > 100 µM.
`c1ccc(N=c2snc3scc(-c4ccccc4)n23)cc1` was tested, and the TGI (CCRF-CEM leukemia) was > 100 µM, the TGI (KM12 colon) was > 100 µM and the TGI (OVCAR-3 ovarian) was 62.2 µM. For the same compound, the TGI (RXF 393 renal) was > 100 µM, the TGI (OVCAR-4 ovarian) was > 100 µM and the TGI (COLO 205 colon) was 80.6 µM. For the same compound, the TGI (RXF-631 renal) was > 100 µM, the TGI (LXFL 529 NSCLC) was > 100 µM and the TGI (HCT-15 colon) was > 100 µM. For the same compound, the TGI (OVCAR-8 ovarian) was > 100 µM, the TGI (HT29 colon) was > 100 µM and the TGI (M19-MEL melanoma) was > 100 µM. The TGI (HOP-18 NSCLC) was > 100 µM, the TGI (HOP-62 NSCLC) was > 100 µM and the TGI (SW-620 colon) was > 100 µM. The TGI (M14 melanoma) was 96.2 µM, the TGI (TK-10 renal) was > 100 µM and the TGI (NCI-H226 lung) was > 100 µM. For the same compound, the TGI (SF-268 CNS) was > 100 µM, the TGI (UO-31 renal) was 81.4 µM and the TGI (NCI-H522 lung) was 38.4 µM. The TGI (SN12C renal) was > 100 µM, the TGI (DMS 273 small cell lung) was > 100 µM and the TGI (SF-295 CNS) was > 100 µM. The TGI (UACC-62 melanoma) was 92.1 µM, the TGI (SF-539 CNS) was > 100 µM and the TGI (K-562 leukemia) was > 100 µM. The TGI (SNB-19 CNS) was > 100 µM, the TGI (EKVX NSCLC) was > 100 µM and the TGI (A549 NSCLC) was > 100 µM. For the same compound, the TGI (UACC-257 melanoma) was > 100 µM, the TGI (HL-60(TB) leukemia) was > 100 µM and the TGI (RPMI-8226 leukemia) was 86.7 µM. The TGI (HOP-92 NSCLC) was 76.3 µM, the TGI (U251 CNS) was 68.3 µM and the TGI (OVCAR-5 ovarian) was > 100 µM. The TGI (786-0 renal) was > 100 µM, the TGI (SNB-78 CNS) was > 100 µM and the TGI (SK-MEL-2 melanoma) was > 100 µM. The TGI (SNB-75 CNS) was > 100 µM, the TGI (NCI-H23 lung) was > 100 µM and the TGI (CAKI-1 renal) was > 100 µM. The TGI (HCC-2998 colon) was > 100 µM, the TGI (SK-OV-3 ovarian) was > 100 µM and the TGI (IGROV1 ovarian) was > 100 µM. For the same compound, the TGI (LOX IMVI melanoma) was > 100 µM, the TGI (MALME-3M melanoma) was 98.6 µM and the TGI (MOLT-4 leukemia) was 79.6 µM. For the same compound, the TGI (XF 498 CNS) was 66.6 µM, the TGI (A498 renal) was > 100 µM and the TGI (DMS 114 small cell lung) was 88.8 µM. The TGI (ACHN renal) was > 100 µM, the TGI (SK-MEL-5 melanoma) was 61.9 µM and the TGI (DLD-1 colon) was > 100 µM. For the same compound, the TGI (SK-MEL-28 melanoma) was > 100 µM.
